Measured values reported in patent US20080096971A1, “Treatment of Inflammatory Disorders and Pain” (priority 2004, published 2008).
“Also recorded” adds a separate entry of the source.

Columns and labels:
[1] = system: Male Wistar rats (Freund's adjuvant); experiment: Rat Adjuvant Assay; format: in vivo; conditions: oral once a day from day 11; (S)-clenbuterol at 0.3, 1 and 3 mg/kg/day
Protocol: Male Wistar rats (180 to 200 g) were inoculated by subplantar injection of Freund's adjuvant (suspension of Mycobacterium butyricum in mineral oil) into the right paw at day 0. Sham inoculations were injected in the same way with 0.9% saline in matched Male Wistar rats. On day 2 animals were weighed. On days 3, 4, 7, 9 and 11 animals were weighed and both their right and left hind paws were measure by plethsymometry by submerging the paw up to the tibiotarsal joint. On day 11, rats with left hind paw volumes increased by 20% were selected for continuance in the study. On the same day continuance rats were administered test article orally (10 ml/kg in distilled water) and from then on once a day until the completion of the study. Left and right hind paw volumes were measured on days 11, 14, 15, 16, 18 and 21.

[2] = system: Guinea-pig trachea ring preparations (beta2 agonism); experiment: Beta2 Agonism Functional Assay (carbachol-contracted trachea rings); format: cell-based; conditions: for beta2 agonist activity (in words): guinea-pig trachea, formoterol positive control
Protocol: Beta2 Agonism Functional Assay
Guinea-pig trachea ring preparations were suspended in Kreb's solution containing indomethacin. After 15 minutes stabilisation, the preparations were repeated contracted using carbachol and simultaneously treated with increasing cumulative doses test compounds (0.1 nM to 0.1 μM). Beta2 agonism for each test compound was determined by its dose-dependant inhibition of carbachol-stimulated tracheal muscle twitch.

[3] = system: male DBA1 mice (collagen II induced arthritis); experiment: Collagen II-Induced Arthritis Assay; format: in vivo; conditions: doses of 0.3, 1 and 3 mg/kg, from day 21
Protocol: Collagen II-Induced Arthritis Assay
6 to 8 week old male DBA1 mice were immunised with 0.1 ml intradermal (tail) injection of bovine type II collagen emulsified in Freund's complete adjuvant (day 0). At day 21 a booster collagen (intraperitoneal) inoculation was given, in PBS. Simultaneously, administration of test compound was given by the predetermined route of administration and delivery frequency. In addition, day 21 commenced observation of clinical signs, body weights and arthritis reaction scores. Arthritis score was assessed by the summation of all four paws scored for signs of arthritis development.

[4] = system: Serum TNFα and IL-10 levels; experiment: LPS Mouse Assay; format: in vivo, Balb C ByJ mice; conditions: LPS 1 mg/kg i.p., serum 2 hours after challenge, 0.3 and 1 mg/kg p.o. for (S)-clenbuterol
Protocol: 7 week old Balb C ByJ mice (24-28 g) were administered, either by i.p. (5 ml/kg) or oral (10 ml/kg) administration, with vehicle or test article. 30 minutes later these animals were challenged with an intraperitoneal injection of 1 mg/kg LPS. 2 hours after LPS challenge blood samples were collected under light isoflurane anaesthesia into normal tubes by retro-orbital puncture. Samples were allowed to clot at room temperature and then spun at 6000 g for 3 min at 4° C. Serum was stored at −20° C. until use. Serum TNFα and IL-10 levels were analysed in duplicate by ELISA technique.

[5] = system: male Wistar rats (carrageenan-injected right hind paw); experiment: Carrageenan Paw Assay; format: in vivo; conditions: doses of 0.3, 1 and 3 mg/kg oral; 1-5 hours after carrageenan
Protocol: Fasted (18 hour) male Wistar rats (105-130 g) were weighed and a basal mercury plethysmometer reading was taken of the right hind paw by submerging the paw in the mercury up to the tibiotarsal joint. Subsequently, vehicles, reference items and test articles were administered by oral gavage (10 ml/kg). Half an hour after treatment 0.1 ml of 2% carrageenan in 0.9% saline was injected into the subplanatar area of the right hind paw. The right paw was measured again with the plethysmometer at 1, 2, 3, 4 and 5 hours after carrageenan administration.

Structure (SMILES)	anti-inflammatory effect (hind paw volume) [1]	inhibition of carbachol-stimulated tracheal muscle twitch ([2]; from −10 to −7 log M, cumulative doses)	beta2 agonist activity (in words) [2]	anti-inflammatory effect (arthritis score) [3]	immunomodulatory activity (serum TNFα and IL-10 after LPS) [4]	immunomodulatory activity (serum TNFα and IL-10 after LPS) ([4]; listed as (S)-clenbuterol)	anti-inflammatory activity (paw volume) [5]	beta2 agonist activity (in words) ([2]; listed as (R)-clenbuterol)
CC(C)(C)NC[C@@H](O)c1cc(Cl)c(N)c(Cl)c1 [(S)-Clenbuterol, (S)-(+)-clenbuterol]	clear but non-dose-related anti-inflammatory effect	up to 75%	a little lower than that caused by formoterol	clear but inverse dose-related anti-inflammatory effect	significant activity	profound immunomodulatory profile; also recorded: less than (R)-clenbuterol	strong and dose-dependent anti-inflammatory activity	
CC(C)(C)NC[C@H](O)c1cc(Cl)c(N)c(Cl)c1 [(R)-Clenbuterol]			little such beta2 agonist activity		significant activity			distinct beta2 agonism
